In patent US11639912B2, “Sensor and concentration measurement method” (PHC Holdings Corporation, priority 2009, dated 2023):
In brackets after ≈: the same amount, converted by molar mass. Where two headings read alike, the source gives them in different places.

Experiments:
[1] = Redox / oxidation potentials stated in the description without method; format: physicochemical; details: no method given
[2] = Solubility of mediator in water, evaluated visually; format: physicochemical; details: for solubility: thermodynamic from solid, Table 1, water at 25° C., evaluated visually
Description: Potassium ferricyanide, 9,10-phenanthrenequinone, and sodium 9,10-phenanthrene-quinone-2-sulfonate were weighed out, and water was added to them. The solubility in water at 25° C. was evaluated visually.

[3] = background statement, cited from earlier work
[4] = Redox potential by cyclic voltammetry (glassy carbon working electrode, Ag|AgCl reference); format: physicochemical; details: for Eox (V), potential value at the peak oxidation current / Ered (V), potential value at the peak reduction current: 1 mM in 100 mM phosphate buffer pH 7, sweep 0.1 V/second; for E0′ (V) [(Ered + Eox)/2], redox potential: average of Ered and Eox
Description: Potassium ferricyanide and sodium 9,10-phenanthrenequinone-2-sulfonate were each dissolved in an amount of 1 mM in a 100 mM phosphate buffer (pH 7), to prepare a potassium ferricyanide aqueous solution and a sodium 9,10-phenanthrenequinone-2-sulfonate aqueous solution.
These aqueous solutions were used to measure the redox potential by cyclic voltammetry for potassium ferricyanide and sodium 9,10-phenanthrenequinone-2-sulfonate. More specifically, the electrodes used here were as follows. • working electrode: glassy carbon electrode • counter electrode: platinum wire • reference electrode: silver/silver chloride (saturated potassium chloride) electrode (hereinafter referred to as Ag|AgCl).
A potentiostat was used for measurement. The various electrodes and the potentiostat were types commonly used in electrochemistry. This equipment can be purchased from BAS, for example.
The cyclic voltammetry involved searching for the potential applied to the working electrode, linearly with respect to time. The sweep rate was set to 0.1 V/second. First, a first potential was applied to the working electrode, and the electrode potential was swept to the negative side from the starting potential to a second potential that was more negative. Then, sweep was performed in which the electrode potential was flipped back to the positive side from the second potential to the first potential.
The first and second potentials were 0.7 V and −0.3 V, respectively, in the case of potassium ferricyanide, and were 0.2 V and −0.5 V in the case of sodium 9,10-phenanthrenequinone-2-sulfonate.
The potential discussed next is the potential with respect to Ag|AgCl.
If we calculate the redox potential as the average value [(Ered+Eox)/2] of the potential value at the peak oxidation current (Eox) and the potential value at the peak reduction current (Ered), the redox potential for the sodium 9,10-phenanthrenequinone-2-sulfonate is −150 mV and the redox potential for potassium ferricyanide is 225 mV. Thus, the redox potential for sodium 9,10-phenanthrenequinone-2-sulfonate measured using Ag|AgCl as a reference electrode was negative.
Also, compounds A, B, H′, I, I′, and J and disodium 9,10-phenanthrenequinone-2,7-disulfonate were subjected to cyclic voltammetry by the same operation as in FIG. 4. […]

[5] = FIG. 4, vs Ag|AgCl, 100 mM phosphate buffer pH 7

SMILES	Eox (V), potential value at the peak oxidation current ([4]; vs Ag|AgCl)	Ered (V), potential value at the peak reduction current ([4]; vs Ag|AgCl)	E0′ (V) [(Ered + Eox)/2], redox potential ([4]; vs Ag|AgCl)	Solubility in water ([2]; Table 2)	further results
O=C1C=C(S(=O)(=O)O)c2ccccc2C1=O [1,2-naphthoquinone-4-sulfonic acid]					redox potential of mediators pertaining to the invention [1]: −16 mV
O=C1C(=O)c2cc(S(=O)(=O)O)ccc2-c2ccccc21 [9,10-phenanthrenequinone-2-sulfonic acid]					redox potential of mediators pertaining to the invention [1]: −140 mV
O=C1C(=O)c2ccccc2-c2ccccc21 [9,10-phenanthrenequinone]					redox potential of mediators pertaining to the invention [1]: −180 mV; solubility [2]: < 1 mM
Cc1cc2nc3c(=O)[nH]c(=O)nc-3n(C[C@H](O)[C@H](O)[C@H](O)COP(=O)(O)OP(=O)(O)OC[C@H]3O[C@@H](n4cnc5c(N)ncnc54)[C@H](O)[C@@H]3O)c2cc1C [FAD, flavin adenine dinucleotide]					redox potential of coenzymes and prior-art mediator [3]: approximately −300 mV
O=C(O)c1cc(C(=O)O)c2c(n1)C(=O)C(=O)c1cc(C(=O)O)[nH]c1-2 [PQQ, pyrroloquinoline quinone]					redox potential of coenzymes and prior-art mediator [3]: approximately −200 mV
O=C1O[C@H]([C@@H](O)CO)C(O)=C1O [ascorbic acid]					oxidation potential ([3]; vs. Ag|AgCl): approximately −140 mV
O=C1C(=O)c2cc([N+](=O)[O-])ccc2-c2ccccc21 [compound A]	−0.10 V	−0.13 V	−0.12 V	1 mM (≈ 253 µg/mL)	
Nc1ccc2c(c1)C(=O)C(=O)c1ccccc1-2 [compound B]	−0.19 V	−0.23 V	−0.21 V		Solubility in water [2]: 1 mM (≈ 223 µg/mL)
O=C1C(=O)c2cc(-c3ccc(S(=O)(=O)[O-])cc3)ccc2-c2ccccc21.[Na+] [compound H′]	−0.14 V	−0.21 V	−0.18 V	20 mM	
O=C([O-])c1ccc(-c2ccc3c(c2)C(=O)C(=O)c2ccccc2-3)cc1.[Na+] [compound I]	−0.14 V	−0.22 V	−0.18 V	5 mM	
O=C(NCCS(=O)(=O)[O-])c1ccc(-c2ccc3c(c2)C(=O)C(=O)c2ccccc2-3)cc1.[Na+] [compound I′]	−0.14 V	−0.22 V	−0.18 V	20 mM	
O=C([O-])c1cc(C(=O)[O-])cc(-c2ccc3c(c2)C(=O)C(=O)c2ccccc2-3)c1.[Na+].[Na+] [compound J]	−0.15 V	−0.23 V	−0.19 V	50 mM	
O=C1C(=O)c2cc(S(=O)(=O)[O-])ccc2-c2ccc(S(=O)(=O)[O-])cc21.[Na+].[Na+] [disodium 9,10-phenanthrenequinone-2,7-disulfonate]	−0.06 V	−0.18 V	−0.12 V	over 200 mM	
O=C1C(=O)c2cccnc2-c2ncccc21 [phenanthroline quinone]					redox potential of coenzymes and prior-art mediator [3]: approximately 0 mV
O=C1C(=O)c2cc(S(=O)(=O)[O-])ccc2-c2ccccc21.[Na+] [sodium 9,10-phenanthrenequinone-2-sulfonate]	−0.12 V	−0.18 V	−0.15 V		potential at the peak oxidation current [4, 5]: −120 mV; potential at the peak reduction current [4, 5]: −180 mV; redox reaction with a glassy carbon electrode ([4]; cyclic voltammetry): quickly and reversibly; redox potential lower than that of potassium ferricyanide ([4]; difference to potassium ferricyanide): about 400 mV; redox potential [(Ered+Eox)/2] ([4]; vs Ag|AgCl): −150 mV; Solubility in water (in words) [2]: good solubility; solubility [2]: > 80 mM
